Values belong to the compound of their own block, whether it stands above or below them.
Columns and labels:
[1] = target: T1, Alpha-1B adrenergic receptor (Homo sapiens, UniProt P35368)
T1 sequence (P35368 whole entry): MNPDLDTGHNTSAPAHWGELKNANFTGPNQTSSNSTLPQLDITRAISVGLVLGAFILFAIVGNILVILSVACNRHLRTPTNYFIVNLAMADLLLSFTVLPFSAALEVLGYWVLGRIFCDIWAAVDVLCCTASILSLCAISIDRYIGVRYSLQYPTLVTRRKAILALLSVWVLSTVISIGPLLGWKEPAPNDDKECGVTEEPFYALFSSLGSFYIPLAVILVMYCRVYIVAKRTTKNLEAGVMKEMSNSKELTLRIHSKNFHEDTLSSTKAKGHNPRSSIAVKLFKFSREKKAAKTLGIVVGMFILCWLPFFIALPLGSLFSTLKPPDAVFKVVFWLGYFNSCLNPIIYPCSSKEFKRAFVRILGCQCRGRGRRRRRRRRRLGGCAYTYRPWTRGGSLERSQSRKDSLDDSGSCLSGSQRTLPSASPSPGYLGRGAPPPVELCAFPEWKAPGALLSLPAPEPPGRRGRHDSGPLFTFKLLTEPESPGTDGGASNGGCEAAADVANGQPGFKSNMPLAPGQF
Description: Inhibition of adrenergic Alpha-1B receptor

[2] = target: T2, Alpha-1D adrenergic receptor (Homo sapiens, UniProt P25100)
T2 sequence (P25100 whole entry): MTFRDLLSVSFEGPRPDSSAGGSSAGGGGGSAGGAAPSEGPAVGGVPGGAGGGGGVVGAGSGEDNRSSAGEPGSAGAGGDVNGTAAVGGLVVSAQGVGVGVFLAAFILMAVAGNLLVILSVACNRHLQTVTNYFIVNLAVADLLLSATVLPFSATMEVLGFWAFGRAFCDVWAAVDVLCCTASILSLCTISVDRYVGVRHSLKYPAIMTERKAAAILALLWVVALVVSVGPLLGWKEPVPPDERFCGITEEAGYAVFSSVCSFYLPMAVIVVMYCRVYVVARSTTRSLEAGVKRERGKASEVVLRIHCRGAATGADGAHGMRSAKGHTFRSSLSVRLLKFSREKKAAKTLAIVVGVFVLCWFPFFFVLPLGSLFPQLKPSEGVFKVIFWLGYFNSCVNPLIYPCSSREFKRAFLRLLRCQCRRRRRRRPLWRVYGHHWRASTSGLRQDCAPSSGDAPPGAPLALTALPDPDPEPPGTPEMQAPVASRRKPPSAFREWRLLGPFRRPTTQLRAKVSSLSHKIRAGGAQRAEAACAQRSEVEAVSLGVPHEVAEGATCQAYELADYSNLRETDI
Description: Inhibition of adrenergic Alpha-1D receptor

[3] = target: 5-hydroxytryptamine receptor 1B (Homo sapiens, UniProt P28222)
[4] = target: T3, 5-hydroxytryptamine receptor 1A (Homo sapiens, UniProt P08908); experiment: biochemical
T3 sequence (P08908 whole entry): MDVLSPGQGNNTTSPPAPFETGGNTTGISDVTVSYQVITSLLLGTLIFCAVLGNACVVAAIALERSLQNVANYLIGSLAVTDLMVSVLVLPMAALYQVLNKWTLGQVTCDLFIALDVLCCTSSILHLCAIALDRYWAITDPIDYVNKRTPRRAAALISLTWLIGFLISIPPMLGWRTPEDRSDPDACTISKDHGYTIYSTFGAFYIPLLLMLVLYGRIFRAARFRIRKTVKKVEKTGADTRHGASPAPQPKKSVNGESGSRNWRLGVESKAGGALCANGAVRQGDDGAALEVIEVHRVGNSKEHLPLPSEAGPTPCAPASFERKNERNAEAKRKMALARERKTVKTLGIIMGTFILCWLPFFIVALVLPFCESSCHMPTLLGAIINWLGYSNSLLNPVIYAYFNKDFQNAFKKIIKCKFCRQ
Description: Displacement of [3H]8-OH-DPAT from human cloned 5HT1A receptor expressed in HEK293 EBNA cells after 1 hr by liquid scintillation counting

[5] = target: T4, Alpha-1A adrenergic receptor (Homo sapiens, UniProt P35348)
T4 sequence (P35348 whole entry): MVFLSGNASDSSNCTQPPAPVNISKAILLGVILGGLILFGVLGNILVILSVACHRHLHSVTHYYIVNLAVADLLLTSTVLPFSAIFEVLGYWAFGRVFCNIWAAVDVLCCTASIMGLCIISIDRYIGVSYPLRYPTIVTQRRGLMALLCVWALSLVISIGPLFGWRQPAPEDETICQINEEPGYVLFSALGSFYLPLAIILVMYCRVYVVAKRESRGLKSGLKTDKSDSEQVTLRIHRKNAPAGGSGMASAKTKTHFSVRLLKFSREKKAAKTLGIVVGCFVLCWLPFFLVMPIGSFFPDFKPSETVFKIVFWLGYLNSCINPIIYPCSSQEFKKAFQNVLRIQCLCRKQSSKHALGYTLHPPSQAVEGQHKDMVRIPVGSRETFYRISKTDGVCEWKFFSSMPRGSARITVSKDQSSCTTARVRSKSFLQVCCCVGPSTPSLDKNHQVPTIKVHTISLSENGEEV
Description: Inhibition of adrenergic alpha1A receptor

[6] = target: T5, D(4) dopamine receptor (Homo sapiens, UniProt P21917)
T5 sequence (P21917 whole entry): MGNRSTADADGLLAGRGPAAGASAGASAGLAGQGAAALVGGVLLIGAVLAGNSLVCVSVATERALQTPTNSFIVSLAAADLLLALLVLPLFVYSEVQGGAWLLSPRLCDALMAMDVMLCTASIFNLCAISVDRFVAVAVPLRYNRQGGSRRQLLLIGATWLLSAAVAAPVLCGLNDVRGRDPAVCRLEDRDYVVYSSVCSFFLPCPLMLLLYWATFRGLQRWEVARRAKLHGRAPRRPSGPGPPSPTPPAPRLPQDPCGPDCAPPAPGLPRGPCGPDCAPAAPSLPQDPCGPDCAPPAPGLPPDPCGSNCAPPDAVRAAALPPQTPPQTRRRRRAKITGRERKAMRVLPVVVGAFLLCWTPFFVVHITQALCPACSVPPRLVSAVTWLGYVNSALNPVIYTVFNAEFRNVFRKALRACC
Description: Inhibition of dopamine D4 receptor

[7] = target: T3, 5-hydroxytryptamine receptor 1A
[8] = physchem; details: octanol/water, pH 7.4
[9] = target: 5-hydroxytryptamine receptor 7 (Homo sapiens, UniProt P34969)
[10] = test system: Hippocampus; experiment: Biodistribution in Wistar rat hippocampus at 7 MBq, iv after 45 mins; type: ADME, organism-based; details: in vivo, 0.75 h
[11] = test system: Heart; experiment: Biodistribution in Wistar rat heart at 7 MBq, iv after 45 mins; type: ADME, organism-based; details: in vivo, 0.75 h
[12] = test system: Striatum; experiment: Biodistribution in Wistar rat striatum at 7 MBq, iv after 45 mins; type: ADME, organism-based; details: in vivo, 0.75 h
[13] = test system: Rattus norvegicus; experiment: Biodistribution in Wistar rat rest cortex at 7 MBq, iv after 45 mins; type: ADME, organism-based; details: in vivo, 0.75 h
[14] = test system: Lung; experiment: Biodistribution in Wistar rat lung at 7 MBq, iv after 45 mins; type: ADME, organism-based; details: in vivo, 0.75 h
[15] = test system: Nucleic Acid; experiment: Ratio of drug level in cerebellum to striatum in Wistar rat at 7 MBq, iv after 45 mins; type: ADME, organism-based; details: in vivo, 0.75 h
[16] = test system: Thyroid gland; experiment: Biodistribution in non-labeled WAY-100635 ptretreated Wistar rat thyroid assessed per organ at 7 MBq, iv after 45 mins; type: ADME, organism-based; details: in vivo, 0.75 h
[17] = test system: Nucleic Acid; experiment: Ratio of drug level in cerebellum to frontal cortex in Wistar rat at 7 MBq, iv after 45 mins; type: ADME, organism-based; details: in vivo, 0.75 h
[18] = test system: Heart; experiment: Biodistribution in non-labeled WAY-100635 ptretreated Wistar rat heart at 7 MBq, iv after 45 mins; type: ADME, organism-based; details: in vivo, 0.75 h
[19] = test system: Hippocampus; experiment: Biodistribution in non-labeled WAY-100635 ptretreated Wistar rat hippocampus at 7 MBq, iv after 45 mins; type: ADME, organism-based; details: in vivo, 0.75 h
[20] = test system: Occipital cortex; experiment: Biodistribution in non-labeled WAY-100635 ptretreated Wistar rat occipital cortex at 7 MBq, iv after 45 mins; type: ADME, organism-based; details: in vivo, 0.75 h
[21] = test system: Rattus norvegicus; experiment: Biodistribution in non-labeled WAY-100635 ptretreated Wistar rat frontal cortex at 7 MBq, iv after 45 mins; type: ADME, organism-based; details: in vivo, 0.75 h
[22] = test system: Kidney; experiment: Biodistribution in non-labeled WAY-100635 ptretreated Wistar rat kidney at 7 MBq, iv after 45 mins; type: ADME, organism-based; details: in vivo, 0.75 h
[23] = test system: Lung; experiment: Biodistribution in non-labeled WAY-100635 ptretreated Wistar rat lung at 7 MBq, iv after 45 mins; type: ADME, organism-based; details: in vivo, 0.75 h
[24] = test system: Blood; experiment: Biodistribution in non-labeled WAY-100635 ptretreated Wistar rat blood at 7 MBq, iv after 45 mins; type: ADME, organism-based; details: in vivo, 0.75 h
[25] = test system: Blood; experiment: Biodistribution in Wistar rat blood at 7 MBq, iv after 45 mins; type: ADME, organism-based; details: in vivo, 0.75 h
[26] = test system: Liver; experiment: Biodistribution in non-labeled WAY-100635 ptretreated Wistar rat liver at 7 MBq, iv after 45 mins; type: ADME, organism-based; details: in vivo, 0.75 h
[27] = test system: Kidney; experiment: Biodistribution in Wistar rat kidney at 7 MBq, iv after 45 mins; type: ADME, organism-based; details: in vivo, 0.75 h
[28] = test system: Rattus norvegicus; experiment: Biodistribution in non-labeled WAY-100635 ptretreated Wistar rat rest cortex at 7 MBq, iv after 45 mins; type: ADME, organism-based; details: in vivo, 0.75 h
[29] = test system: Nucleic Acid; experiment: Ratio of drug level in cerebellum to hippocampus in Wistar rat at 7 MBq, iv after 45 mins; type: ADME, organism-based; details: in vivo, 0.75 h
[30] = test system: Liver; experiment: Biodistribution in Wistar rat liver at 7 MBq, iv after 45 mins; type: ADME, organism-based; details: in vivo, 0.75 h
[31] = test system: Striatum; experiment: Biodistribution in non-labeled WAY-100635 ptretreated Wistar rat striatum at 7 MBq, iv after 45 mins; type: ADME, organism-based; details: in vivo, 0.75 h
[32] = test system: Nucleic Acid; experiment: Ratio of drug level in cerebellum to occipital cortex in Wistar rat at 7 MBq, iv after 45 mins; type: ADME, organism-based; details: in vivo, 0.75 h
[33] = test system: Cerebellum; experiment: Biodistribution in non-labeled WAY-100635 ptretreated Wistar rat cerebellum at 7 MBq, iv after 45 mins; type: ADME, organism-based; details: in vivo, 0.75 h
[34] = test system: Occipital cortex; experiment: Biodistribution in Wistar rat occipital cortex at 7 MBq, iv after 45 mins; type: ADME, organism-based; details: in vivo, 0.75 h
[35] = test system: Rattus norvegicus; experiment: Biodistribution in Wistar rat frontal cortex at 7 MBq, iv after 45 mins; type: ADME, organism-based; details: in vivo, 0.75 h
[36] = test system: Cerebellum; experiment: Biodistribution in Wistar rat cerebellum at 7 MBq, iv after 45 mins; type: ADME, organism-based; details: in vivo, 0.75 h

Sequence of 5-hydroxytryptamine receptor 1B (P28222 whole entry): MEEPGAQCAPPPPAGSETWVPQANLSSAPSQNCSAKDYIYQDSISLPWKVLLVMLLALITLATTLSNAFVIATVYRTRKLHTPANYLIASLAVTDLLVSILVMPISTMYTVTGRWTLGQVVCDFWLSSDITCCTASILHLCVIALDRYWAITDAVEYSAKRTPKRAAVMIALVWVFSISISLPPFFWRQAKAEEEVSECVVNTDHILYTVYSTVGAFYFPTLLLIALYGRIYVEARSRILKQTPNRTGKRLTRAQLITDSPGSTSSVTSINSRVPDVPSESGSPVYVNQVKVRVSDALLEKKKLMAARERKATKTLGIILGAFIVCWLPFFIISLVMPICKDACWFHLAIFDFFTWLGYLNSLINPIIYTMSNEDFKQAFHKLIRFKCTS
Sequence of 5-hydroxytryptamine receptor 7 (P34969 whole entry): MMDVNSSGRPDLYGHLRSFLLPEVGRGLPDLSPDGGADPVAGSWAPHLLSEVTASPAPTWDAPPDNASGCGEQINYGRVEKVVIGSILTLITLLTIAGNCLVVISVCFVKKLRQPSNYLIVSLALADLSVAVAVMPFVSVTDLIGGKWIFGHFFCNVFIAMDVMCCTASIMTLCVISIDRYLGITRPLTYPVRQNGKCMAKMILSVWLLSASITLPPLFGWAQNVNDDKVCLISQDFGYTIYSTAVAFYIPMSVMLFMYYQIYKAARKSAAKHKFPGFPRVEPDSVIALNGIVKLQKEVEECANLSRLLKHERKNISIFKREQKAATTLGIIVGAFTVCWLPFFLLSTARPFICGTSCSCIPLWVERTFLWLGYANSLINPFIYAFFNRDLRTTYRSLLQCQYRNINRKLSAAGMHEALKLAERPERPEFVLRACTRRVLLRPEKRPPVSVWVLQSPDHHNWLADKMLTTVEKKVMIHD

SMILES: COc1ccccc1N1CCN(CCN(C(=O)C23C4C5C2C2C3C4C52[123I])c2ccccn2)CC1 (stereo unspecified)
- Drug uptake [10]: 0.1 % ID/g
- Drug uptake [11]: 0.16 % ID/g
- Drug uptake [12]: 0.04 % ID/g
- Drug uptake [13]: 0.05 % ID/g
- Drug uptake [14]: 0.28 % ID/g
- Ratio [15]: 0.91
- Drug uptake [16]: 0.01 %ID
- Ratio [17]: 1.16
- Drug uptake [18]: 0.2 % ID/g
- Drug uptake [19]: 0.06 % ID/g
- Drug uptake [20]: 0.05 % ID/g
- Drug uptake [21]: 0.05 % ID/g
- Drug uptake [22]: 1.32 % ID/g
- Drug uptake [23]: 0.31 % ID/g
- Drug uptake [24]: 0.33 % ID/g
- Drug uptake [25]: 0.24 % ID/g
- Drug uptake [26]: 2.77 % ID/g
- Drug uptake [27]: 1.37 % ID/g
- Drug uptake [28]: 0.04 % ID/g
- Ratio [29]: 2.51
- Drug uptake [30]: 2.34 % ID/g
- Drug uptake [31]: 0.04 % ID/g
- Ratio [32]: 1.21
- Drug uptake [33]: 0.05 % ID/g
- Drug uptake [34]: 0.06 % ID/g
- Drug uptake [35]: 0.06 %ID
- Drug uptake [36]: 0.05 % ID/g

SMILES: O=C(N(CCN1CCN(c2ccccc2O)CC1)c1ccccn1)C12CCC(I)(CC1)CC2
- IC50 [4]: 4.57 nM
- Ki [4]: 1.95 nM

SMILES: COc1ccccc1N1CCN(CCN(C(=O)C23CCC(I)(CC2)CC3)c2ccccn2)CC1
- IC50 [4]: 2.61 nM
- Ki [4]: 1.11 nM

SMILES: COc1ccccc1N1CCN(CCN(C(=O)C23CC4CC(CC(I)(C4)C2)C3)c2ccccn2)CC1
- IC50 [4]: 5.04 nM
- Ki [4]: 2.15 nM

SMILES: O=C(N(CCN1CCN(c2ccccc2O)CC1)c1ccccn1)C12CC3CC(C1)C(I)C(C3)C2 (stereo unspecified)
- IC50 [4]: 3.95 nM
- Ki [4]: 1.68 nM

More lines, in order of falling IC50 [4], values ahead:

- Ki [1]: 185 nM
- Ki [2]: 98 nM
- Ki [3]: 121 nM
- IC50 [4]: 2.59 nM
- Ki [4]: 1.11 nM
- Ki [5]: 78 nM
- Ki [6]: 329 nM
- Ki [7]: 2.2 nM
- logD [8]: 4.14
- Ki [9]: 161 nM
SMILES: COc1ccccc1N1CCN(CCN(C(=O)C23C4C5C2C2C3C4C52I)c2ccccn2)CC1 (stereo unspecified)

- IC50 [4]: 2.02 nM
- Ki [4]: 0.87 nM
SMILES: COc1ccccc1N1CCN(CCN(C(=O)C23CCC(I)(CC2)C3)c2ccccn2)CC1

- Ki [1]: 25 nM
- Ki [2]: 181 nM
- Ki [3]: 272 nM
- IC50 [4]: 1.5 nM
- Ki [4]: 0.64 nM
- Ki [5]: 176 nM
- Ki [6]: 890 nM
- Ki [7]: 1.4 nM
- logD [8]: 4.03
- Ki [9]: 50 nM
SMILES: O=C(N(CCN1CCN(c2ccccc2O)CC1)c1ccccn1)C12C3C4C1C1C2C3C41I (stereo unspecified)

- IC50 [4]: 1.19 nM
- Ki [4]: 0.47 nM
SMILES: O=C(N(CCN1CCN(c2ccccc2O)CC1)c1ccccn1)C12CCC(I)(CC1)C2

- IC50 [4]: 0.77 nM
- Ki [4]: 0.33 nM
SMILES: O=C(C1CCCCC1)N(CCN1CCN(c2ccccc2O)CC1)c1ccccn1
